From paper PMC7265341, “Quantifying CDK inhibitor selectivity in live cells” (Nature Communications, 2020)
Read-outs that look alike come from different tables or passages of the source.

Experiments:
CDK1/Cyclin E1 = CDK1/Cyclin E1 (Homo sapiens, UniProt P06493); assay: NanoBRET live-cell target engagement, CDK1-NanoLuc/Cyclin E1 in HEK-293; type: binding; details: CDK1/E1, read-out: Inhibition at 10µM (%)
CDK4/Cyclin D1 = CDK4/Cyclin D1 (Homo sapiens, UniProt P11802); assay: NanoBRET live-cell target engagement, NanoLuc-CDK4/Cyclin D1 in HEK-293; type: binding; details: CDK4/D1, read-out: Inhibition at 10µM (%)
CDK5/CDK5R1 = CDK5/CDK5R1 (Homo sapiens, UniProt Q00535); assay: NanoBRET live-cell target engagement, CDK5-NanoLuc/CDK5R1 in HEK-293; type: binding; details: CDK5/CDK5R1, read-out: Inhibition at 10µM (%)
CDK6/Cyclin D1 = CDK6/Cyclin D1 (Homo sapiens, UniProt Q00534); assay: NanoBRET live-cell target engagement, NanoLuc-CDK6/Cyclin D1 in HEK-293; type: binding; details: for inhibition at 10 µM: read-out: Inhibition at 10µM (%)
CDK7 = CDK7 (Homo sapiens, UniProt P50613); assay: NanoBRET live-cell target engagement, NanoLuc-CDK7 in HEK-293; type: binding; details: CDK7, read-out: Inhibition at 10µM (%)
CDK8/Cyclin C = CDK8/Cyclin C (Homo sapiens, UniProt P49336); assay: NanoBRET live-cell target engagement, NanoLuc-CDK8/Cyclin C in HEK-293; type: binding; details: CDK8/C, read-out: Inhibition at 10µM (%)
CDK9/Cyclin K = CDK9/Cyclin K (Homo sapiens, UniProt P50750); assay: NanoBRET live-cell target engagement, NanoLuc-CDK9/Cyclin K in HEK-293; type: binding; details: CDK9/K, read-out: Inhibition at 10µM (%)
CDK11A/Cyclin L2 = molecular target: T1, CDK11A/Cyclin L2 (Homo sapiens, UniProt Q9UQ88); assay: NanoBRET live-cell target engagement, CDK11A-NanoLuc/Cyclin L2 in HEK-293; type: binding; details: CDK11a/L2, read-out: Inhibition at 10µM (%)
T1 sequence (Q9UQ88 1-783): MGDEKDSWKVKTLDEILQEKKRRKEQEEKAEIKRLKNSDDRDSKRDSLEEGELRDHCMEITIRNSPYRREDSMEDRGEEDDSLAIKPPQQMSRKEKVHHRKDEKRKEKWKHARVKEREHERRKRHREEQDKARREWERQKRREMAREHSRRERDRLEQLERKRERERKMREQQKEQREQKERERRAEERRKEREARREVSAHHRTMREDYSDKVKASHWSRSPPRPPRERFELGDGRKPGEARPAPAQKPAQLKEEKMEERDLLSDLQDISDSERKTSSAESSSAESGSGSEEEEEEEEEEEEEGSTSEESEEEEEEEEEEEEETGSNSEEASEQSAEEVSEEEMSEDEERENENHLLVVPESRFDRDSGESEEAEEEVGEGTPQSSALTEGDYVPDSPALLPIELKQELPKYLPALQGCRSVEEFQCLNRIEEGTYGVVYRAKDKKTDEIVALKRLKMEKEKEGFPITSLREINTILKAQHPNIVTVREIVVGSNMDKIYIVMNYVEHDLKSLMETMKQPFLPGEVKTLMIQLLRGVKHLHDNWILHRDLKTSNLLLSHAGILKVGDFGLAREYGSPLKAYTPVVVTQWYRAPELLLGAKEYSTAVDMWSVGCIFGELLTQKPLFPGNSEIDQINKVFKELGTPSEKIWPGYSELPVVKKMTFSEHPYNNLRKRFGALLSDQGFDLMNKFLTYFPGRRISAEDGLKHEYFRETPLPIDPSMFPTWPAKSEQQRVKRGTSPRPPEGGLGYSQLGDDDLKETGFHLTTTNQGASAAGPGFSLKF

CDK11B/Cyclin L2 = CDK11B/Cyclin L2 (Homo sapiens, UniProt P21127); assay: NanoBRET live-cell target engagement, CDK11B-NanoLuc/Cyclin L2 in HEK-293; type: binding; details: CDK11b/L2, read-out: Inhibition at 10µM (%)
CDK12/Cyclin K = CDK12/Cyclin K (Homo sapiens, UniProt Q9NYV4); assay: NanoBRET live-cell target engagement, CDK12-NanoLuc/Cyclin K in HEK-293; type: binding
CDK13/Cyclin K = CDK13/Cyclin K (Homo sapiens, UniProt Q14004); assay: NanoBRET live-cell target engagement, CDK13-NanoLuc/Cyclin K in HEK-293; type: binding; details: CDK13/K, read-out: Inhibition at 10µM (%)
CDK14/Cyclin Y = CDK14/Cyclin Y (Homo sapiens, UniProt O94921); assay: NanoBRET live-cell target engagement, CDK14-NanoLuc/Cyclin Y in HEK-293; type: binding; details: CDK14/Y, read-out: Inhibition at 10µM (%)
CDK15/Cyclin Y = CDK15/Cyclin Y (Homo sapiens, UniProt Q96Q40); assay: NanoBRET live-cell target engagement, NanoLuc-CDK15/Cyclin Y in HEK-293; type: binding; details: CDK15/Y; for IC50: read-out: IC50; for inhibition at 10 µM: read-out: Inhibition at 10µM (%)
CDK16/Cyclin Y = CDK16/Cyclin Y (Homo sapiens, UniProt Q00536); assay: NanoBRET live-cell target engagement, CDK16-NanoLuc/Cyclin Y in HEK-293; type: binding; details: CDK16/Y; for IC50: read-out: IC50; for inhibition at 10 µM: read-out: Inhibition at 10µM (%)
CDK17/Cyclin Y = CDK17/Cyclin Y (Homo sapiens, UniProt Q00537); assay: NanoBRET live-cell target engagement, CDK17-NanoLuc/Cyclin Y in HEK-293; type: binding; details: CDK17/Y, read-out: Inhibition at 10µM (%)
CDK18/Cyclin Y = CDK18/Cyclin Y (Homo sapiens, UniProt Q07002); assay: NanoBRET live-cell target engagement, CDK18-NanoLuc/Cyclin Y in HEK-293; type: binding; details: CDK18/Y, read-out: Inhibition at 10µM (%)
CDK20/Cyclin H = CDK20/Cyclin H (Homo sapiens, UniProt Q8IZL9); assay: NanoBRET live-cell target engagement, NanoLuc-CDK20/Cyclin H in HEK-293; type: binding; details: CDK20/H, read-out: Inhibition at 10µM (%)
CDK19/Cyclin C = CDK19/Cyclin C (Homo sapiens, UniProt Q9BWU1); assay: NanoBRET live-cell target engagement, NanoLuc-CDK19/Cyclin C in HEK-293; details: read-out: Inhibition at 10µM (%), CDK19/C
CDK10/Cyclin L2 = CDK10/Cyclin L2 (Homo sapiens, UniProt Q15131); assay: NanoBRET live-cell target engagement, CDK10-NanoLuc/Cyclin L2 in HEK-293; details: read-out: Inhibition at 10µM (%), CDK10/L2

Chain of CDK9/Cyclin K (P50750 whole entry): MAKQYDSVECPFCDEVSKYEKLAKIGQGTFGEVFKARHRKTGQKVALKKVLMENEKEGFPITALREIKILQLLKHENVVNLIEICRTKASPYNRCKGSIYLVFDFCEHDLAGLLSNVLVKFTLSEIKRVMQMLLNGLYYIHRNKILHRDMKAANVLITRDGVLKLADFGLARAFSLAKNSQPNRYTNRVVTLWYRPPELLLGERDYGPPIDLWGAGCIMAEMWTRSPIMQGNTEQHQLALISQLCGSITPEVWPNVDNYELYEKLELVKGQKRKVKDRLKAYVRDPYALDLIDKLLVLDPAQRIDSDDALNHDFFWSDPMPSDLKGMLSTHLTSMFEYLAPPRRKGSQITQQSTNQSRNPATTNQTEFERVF
Chain of CDK9/Cyclin K (O75909 whole entry partner): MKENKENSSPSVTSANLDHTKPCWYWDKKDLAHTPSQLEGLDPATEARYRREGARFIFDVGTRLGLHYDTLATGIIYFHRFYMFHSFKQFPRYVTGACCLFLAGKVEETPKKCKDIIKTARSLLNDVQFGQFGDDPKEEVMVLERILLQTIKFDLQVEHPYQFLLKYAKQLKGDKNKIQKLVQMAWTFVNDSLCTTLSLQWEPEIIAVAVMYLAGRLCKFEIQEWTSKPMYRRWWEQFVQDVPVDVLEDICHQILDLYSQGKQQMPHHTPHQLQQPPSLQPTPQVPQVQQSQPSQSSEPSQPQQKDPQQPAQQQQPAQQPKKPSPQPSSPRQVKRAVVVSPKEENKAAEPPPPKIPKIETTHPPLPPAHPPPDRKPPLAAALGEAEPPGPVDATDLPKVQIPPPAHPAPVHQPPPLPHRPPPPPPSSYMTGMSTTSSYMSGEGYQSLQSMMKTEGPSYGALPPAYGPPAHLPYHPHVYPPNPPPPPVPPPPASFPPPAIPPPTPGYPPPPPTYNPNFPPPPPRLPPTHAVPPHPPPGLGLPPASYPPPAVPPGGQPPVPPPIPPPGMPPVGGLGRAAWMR
Chain of CDK17/Cyclin Y (Q00537 whole entry): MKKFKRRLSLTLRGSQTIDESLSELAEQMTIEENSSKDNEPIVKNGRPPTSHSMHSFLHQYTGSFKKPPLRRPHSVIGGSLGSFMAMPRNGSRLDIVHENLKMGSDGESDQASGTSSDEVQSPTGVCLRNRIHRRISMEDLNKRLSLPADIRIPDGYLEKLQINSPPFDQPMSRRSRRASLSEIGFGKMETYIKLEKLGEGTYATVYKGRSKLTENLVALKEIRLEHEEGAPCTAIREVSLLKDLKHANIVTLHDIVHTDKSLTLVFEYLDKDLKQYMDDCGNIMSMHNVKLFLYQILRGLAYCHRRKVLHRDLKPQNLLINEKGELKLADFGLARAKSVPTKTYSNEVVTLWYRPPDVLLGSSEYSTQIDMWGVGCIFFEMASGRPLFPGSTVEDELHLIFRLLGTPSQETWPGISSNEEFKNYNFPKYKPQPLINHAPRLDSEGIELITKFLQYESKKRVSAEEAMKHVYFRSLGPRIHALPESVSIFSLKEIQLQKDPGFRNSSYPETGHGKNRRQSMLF
Chain of CDK17/Cyclin Y (Q8ND76 whole entry partner): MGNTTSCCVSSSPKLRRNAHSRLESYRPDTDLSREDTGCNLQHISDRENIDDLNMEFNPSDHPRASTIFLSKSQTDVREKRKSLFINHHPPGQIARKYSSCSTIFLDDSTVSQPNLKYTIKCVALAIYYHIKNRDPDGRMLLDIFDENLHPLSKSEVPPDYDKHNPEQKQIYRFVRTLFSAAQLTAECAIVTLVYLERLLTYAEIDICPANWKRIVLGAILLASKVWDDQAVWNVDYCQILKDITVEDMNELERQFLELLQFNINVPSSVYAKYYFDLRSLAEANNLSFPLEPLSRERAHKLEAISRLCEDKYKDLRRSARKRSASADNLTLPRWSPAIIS
Chain of CDK18/Cyclin Y (Q07002 whole entry): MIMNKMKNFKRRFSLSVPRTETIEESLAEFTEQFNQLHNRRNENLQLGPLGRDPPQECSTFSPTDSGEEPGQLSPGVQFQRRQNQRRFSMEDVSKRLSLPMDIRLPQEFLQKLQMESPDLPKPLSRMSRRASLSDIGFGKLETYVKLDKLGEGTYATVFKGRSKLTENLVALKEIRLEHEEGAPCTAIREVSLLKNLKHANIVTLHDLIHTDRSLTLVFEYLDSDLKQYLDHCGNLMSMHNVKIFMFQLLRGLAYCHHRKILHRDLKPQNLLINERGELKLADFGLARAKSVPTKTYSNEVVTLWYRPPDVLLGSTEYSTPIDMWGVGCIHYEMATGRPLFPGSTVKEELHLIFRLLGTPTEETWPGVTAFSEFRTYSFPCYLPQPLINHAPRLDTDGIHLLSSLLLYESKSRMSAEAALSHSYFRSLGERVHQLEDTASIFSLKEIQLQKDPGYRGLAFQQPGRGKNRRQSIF
Chain of CDK18/Cyclin Y (Q8ND76 whole entry partner): as the sequence (Q8ND76 whole entry partner) above
Chain of CDK1/Cyclin E1 (P06493 whole entry): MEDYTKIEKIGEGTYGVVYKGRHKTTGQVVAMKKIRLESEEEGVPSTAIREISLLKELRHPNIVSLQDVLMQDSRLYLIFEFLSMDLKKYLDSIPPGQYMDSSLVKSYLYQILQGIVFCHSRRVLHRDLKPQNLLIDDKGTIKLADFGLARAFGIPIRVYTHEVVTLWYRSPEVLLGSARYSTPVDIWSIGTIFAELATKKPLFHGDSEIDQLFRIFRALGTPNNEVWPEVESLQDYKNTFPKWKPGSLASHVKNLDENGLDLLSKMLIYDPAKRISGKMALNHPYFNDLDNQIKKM
Chain of CDK1/Cyclin E1 (P24864 whole entry partner): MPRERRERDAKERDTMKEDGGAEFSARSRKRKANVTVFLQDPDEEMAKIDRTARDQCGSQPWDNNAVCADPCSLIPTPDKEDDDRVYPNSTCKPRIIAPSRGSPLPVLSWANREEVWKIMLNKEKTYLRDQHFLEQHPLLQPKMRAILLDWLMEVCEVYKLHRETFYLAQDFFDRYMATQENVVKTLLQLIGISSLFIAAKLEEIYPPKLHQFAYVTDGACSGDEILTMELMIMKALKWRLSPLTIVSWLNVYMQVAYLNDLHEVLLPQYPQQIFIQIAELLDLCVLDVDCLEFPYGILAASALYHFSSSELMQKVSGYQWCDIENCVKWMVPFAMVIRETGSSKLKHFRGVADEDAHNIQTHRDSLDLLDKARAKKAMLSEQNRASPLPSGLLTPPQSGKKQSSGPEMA
Chain of CDK14/Cyclin Y (O94921 whole entry): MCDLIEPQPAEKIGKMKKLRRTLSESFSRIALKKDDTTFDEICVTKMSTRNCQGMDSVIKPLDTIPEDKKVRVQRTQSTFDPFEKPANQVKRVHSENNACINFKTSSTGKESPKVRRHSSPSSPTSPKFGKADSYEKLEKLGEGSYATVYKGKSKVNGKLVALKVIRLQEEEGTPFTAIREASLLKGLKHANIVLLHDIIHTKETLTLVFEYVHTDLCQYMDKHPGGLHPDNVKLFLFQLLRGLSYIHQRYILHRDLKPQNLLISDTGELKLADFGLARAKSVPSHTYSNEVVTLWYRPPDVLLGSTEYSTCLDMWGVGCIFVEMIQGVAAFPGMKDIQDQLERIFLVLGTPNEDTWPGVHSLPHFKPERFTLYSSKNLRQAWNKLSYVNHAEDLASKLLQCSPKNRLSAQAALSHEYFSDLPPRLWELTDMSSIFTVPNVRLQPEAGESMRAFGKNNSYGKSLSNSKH
Chain of CDK14/Cyclin Y (Q8ND76 whole entry partner): as the sequence (Q8ND76 whole entry partner) above
Chain of CDK19/Cyclin C (Q9BWU1 whole entry): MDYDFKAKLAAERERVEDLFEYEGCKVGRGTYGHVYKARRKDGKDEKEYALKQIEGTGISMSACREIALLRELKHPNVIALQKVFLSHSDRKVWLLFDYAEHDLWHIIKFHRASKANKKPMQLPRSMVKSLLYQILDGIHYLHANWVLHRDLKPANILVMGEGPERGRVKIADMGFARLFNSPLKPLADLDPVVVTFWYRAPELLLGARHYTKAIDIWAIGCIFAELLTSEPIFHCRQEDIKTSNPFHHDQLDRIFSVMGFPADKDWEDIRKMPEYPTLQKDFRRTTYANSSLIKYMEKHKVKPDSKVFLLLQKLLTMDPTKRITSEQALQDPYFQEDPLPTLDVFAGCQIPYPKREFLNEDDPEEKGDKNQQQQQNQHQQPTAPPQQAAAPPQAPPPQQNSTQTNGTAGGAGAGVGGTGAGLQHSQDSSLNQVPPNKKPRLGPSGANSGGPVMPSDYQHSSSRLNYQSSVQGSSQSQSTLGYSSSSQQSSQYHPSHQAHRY
Chain of CDK19/Cyclin C (P24863 whole entry partner): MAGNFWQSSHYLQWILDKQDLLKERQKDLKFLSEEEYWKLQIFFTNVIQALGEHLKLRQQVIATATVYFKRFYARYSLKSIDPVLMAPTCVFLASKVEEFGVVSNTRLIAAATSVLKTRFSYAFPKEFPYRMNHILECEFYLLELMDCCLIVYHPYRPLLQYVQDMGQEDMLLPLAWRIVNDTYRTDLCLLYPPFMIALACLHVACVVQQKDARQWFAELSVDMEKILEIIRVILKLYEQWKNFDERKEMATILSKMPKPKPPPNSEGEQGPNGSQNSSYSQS
Chain of CDK4/Cyclin D1 (P11802 whole entry): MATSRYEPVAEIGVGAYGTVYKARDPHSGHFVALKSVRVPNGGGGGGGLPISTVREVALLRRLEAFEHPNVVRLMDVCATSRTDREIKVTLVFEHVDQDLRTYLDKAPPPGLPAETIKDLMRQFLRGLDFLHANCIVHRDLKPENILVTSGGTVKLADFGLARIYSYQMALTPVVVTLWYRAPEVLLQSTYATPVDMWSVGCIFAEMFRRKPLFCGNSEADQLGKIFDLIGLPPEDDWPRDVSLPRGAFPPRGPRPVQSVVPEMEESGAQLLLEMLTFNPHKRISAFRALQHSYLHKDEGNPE
Chain of CDK4/Cyclin D1 (P24385 whole entry partner): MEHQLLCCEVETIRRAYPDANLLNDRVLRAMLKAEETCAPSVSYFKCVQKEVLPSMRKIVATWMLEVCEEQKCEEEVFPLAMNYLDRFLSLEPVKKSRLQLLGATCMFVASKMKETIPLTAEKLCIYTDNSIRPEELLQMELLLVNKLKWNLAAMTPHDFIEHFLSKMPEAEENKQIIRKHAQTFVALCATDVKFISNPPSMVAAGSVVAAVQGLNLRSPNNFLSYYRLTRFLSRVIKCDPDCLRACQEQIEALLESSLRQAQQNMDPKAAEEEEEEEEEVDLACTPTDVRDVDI

CNC(=O)c1nn(C)c2c1C(C)(C)Cc1cnc(Nc3ccc(N4CCN(C)CC4)cc3)nc1-2 [Milciclib]
inhibition at 10 µM (CDK1/Cyclin E1; average): 61.1%
inhibition at 10 µM (CDK1/Cyclin E1; experiment 1): 52.9%
inhibition at 10 µM (CDK1/Cyclin E1; experiment 2): 69.2%
inhibition at 10 µM (CDK4/Cyclin D1; average): 98.1%
inhibition at 10 µM (CDK4/Cyclin D1; experiment 1): 98.8%
inhibition at 10 µM (CDK4/Cyclin D1; experiment 2): 97.4%
inhibition at 10 µM (CDK5/CDK5R1; average): 82.1%
inhibition at 10 µM (CDK5/CDK5R1; experiment 1): 77.8%
inhibition at 10 µM (CDK5/CDK5R1; experiment 2): 86.4%
IC50 (CDK6/Cyclin D1; CDK6/D1, average (± SEM where n=3), read-out: IC50): 110 ± 20 nM
inhibition at 10 µM (CDK6/Cyclin D1; CDK6/D1, average): 96.3%
IC50 (CDK6/Cyclin D1; CDK6/D1, experiment 1, read-out: IC50): 110 nM
inhibition at 10 µM (CDK6/Cyclin D1; CDK6/D1, experiment 1): 96.1%
IC50 (CDK6/Cyclin D1; CDK6/D1, experiment 2, read-out: IC50): 83 nM
inhibition at 10 µM (CDK6/Cyclin D1; CDK6/D1, experiment 2): 96.5%
IC50 (CDK6/Cyclin D1; CDK6/D1, experiment 3, read-out: IC50): 144 nM
IC50 (CDK6/Cyclin D1; live HEK-293, 2 h, mean ± S.E.M. (n=3) or mean (n=2), read-out: IC50 for CDK/cyclin complexes, CDK6/D1): 110 ± 20 nM
inhibition at 10 µM (CDK7; average): 92.1%
inhibition at 10 µM (CDK7; experiment 1): 89.4%
inhibition at 10 µM (CDK7; experiment 2): 94.8%
inhibition at 10 µM (CDK8/Cyclin C; average): 16%
inhibition at 10 µM (CDK8/Cyclin C; experiment 1): 44.2%
inhibition at 10 µM (CDK8/Cyclin C; experiment 2): -12.1%
inhibition at 10 µM (CDK9/Cyclin K; average): 55.3%
inhibition at 10 µM (CDK9/Cyclin K; experiment 1): 50.1%
inhibition at 10 µM (CDK9/Cyclin K; experiment 2): 60.5%
inhibition at 10 µM (CDK11A/Cyclin L2; average): 22.7%
inhibition at 10 µM (CDK11A/Cyclin L2; experiment 1): 20.3%
inhibition at 10 µM (CDK11A/Cyclin L2; experiment 2): 25%
inhibition at 10 µM (CDK11B/Cyclin L2; average): 14.4%
inhibition at 10 µM (CDK11B/Cyclin L2; experiment 1): 14.6%
inhibition at 10 µM (CDK11B/Cyclin L2; experiment 2): 14.3%
inhibition at 10 µM (CDK12/Cyclin K; CDK12/K, experiment 1, read-out: Inhibition at 10µM (%)): 16.8%
inhibition at 10 µM (CDK12/Cyclin K; CDK12/K, experiment 2, read-out: Inhibition at 10µM (%)): 10.6%
inhibition at 10 µM (CDK12/Cyclin K; read-out: Inhibition at 10µM (%), CDK12/K, average): 13.7%
inhibition at 10 µM (CDK13/Cyclin K; average): 13.7%
inhibition at 10 µM (CDK13/Cyclin K; experiment 1): 15%
inhibition at 10 µM (CDK13/Cyclin K; experiment 2): 12.5%
inhibition at 10 µM (CDK14/Cyclin Y; average): 74.3%
inhibition at 10 µM (CDK14/Cyclin Y; experiment 1): 71.9%
inhibition at 10 µM (CDK14/Cyclin Y; experiment 2): 76.8%
IC50 (CDK15/Cyclin Y; average (± SEM where n=3)): 880 ± 60 nM
inhibition at 10 µM (CDK15/Cyclin Y; average): 86%
IC50 (CDK15/Cyclin Y; experiment 1): 970 nM
inhibition at 10 µM (CDK15/Cyclin Y; experiment 1): 83.8%
IC50 (CDK15/Cyclin Y; experiment 2): 898 nM
inhibition at 10 µM (CDK15/Cyclin Y; experiment 2): 88.1%
IC50 (CDK15/Cyclin Y; experiment 3): 778 nM
IC50 (CDK16/Cyclin Y; average (± SEM where n=3)): 300 ± 40 nM
IC50 (CDK16/Cyclin Y; experiment 1): 383 nM
inhibition at 10 µM (CDK16/Cyclin Y; experiment 1): 86.4%
IC50 (CDK16/Cyclin Y; experiment 2): 260 nM
inhibition at 10 µM (CDK16/Cyclin Y; experiment 2): 90.1%
IC50 (CDK16/Cyclin Y; experiment 3): 273 nM
inhibition at 10 µM (CDK17/Cyclin Y; average): 87.8%
inhibition at 10 µM (CDK17/Cyclin Y; experiment 1): 86.7%
inhibition at 10 µM (CDK17/Cyclin Y; experiment 2): 88.9%
inhibition at 10 µM (CDK18/Cyclin Y; average): 84.2%
inhibition at 10 µM (CDK18/Cyclin Y; experiment 1): 83.1%
inhibition at 10 µM (CDK18/Cyclin Y; experiment 2): 85.3%
inhibition at 10 µM (CDK20/Cyclin H; experiment 1): 50.1%
inhibition at 10 µM (CDK20/Cyclin H; experiment 2): 36.3%
inhibition at 10 µM (CDK19/Cyclin C; average): 19.2%
inhibition at 10 µM (CDK19/Cyclin C; experiment 1): 44.9%
inhibition at 10 µM (CDK19/Cyclin C; experiment 2): -6.6%
inhibition at 10 µM (CDK10/Cyclin L2; average): 30.6%
inhibition at 10 µM (CDK10/Cyclin L2; experiment 1): 32.3%
inhibition at 10 µM (CDK10/Cyclin L2; experiment 2): 28.9%
